The record followed here is patent US8318762B2, “Pyrazolospiroketone acetyl-CoA carboxylase inhibitors” (Pfizer Inc., priority 2008, dated 2012).

The target of this assay is T1, recombinant human ACC2 (Homo sapiens, UniProt O00763).
T1 construct: a full length Cytomax clone of ACC2 was purchased from Cambridge Bioscience Limited; made in house; host or cells: CHO cells (tetracycline induction, pcDNA5 FRT TO-TOPO); purified on a Softlink Soft Release Avidin column
Briefly: Measurement of human ACC2 inhibition (recombinant hACC2 Transcreener ADP detection FP assay). Type of assay: biochemical. As to conditions: recombinant hACC2 transcreener assay; read-out: rhACC2 IC50. The method in brief: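 Purified hACC2 from tetracycline-induced CHO cells (avidin-column eluate) was run in 50 mM HEPES pH7.5, 5 mM MgCl2, 5 mM citrate, 2 mM DTT, 0.5 mg/mL BSA with 30 μM acetyl-CoA, 50 μM ATP and 8 mM KHCO3. Reaction lasted 1 hour at room temperature; ADP was detected by Transcreener FP after another 1 hour.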

A word on the IC50: it is the concentration that inhibits the measured activity by half.

The structures appear in SMILES notation.

T1 sequence (O00763 whole entry): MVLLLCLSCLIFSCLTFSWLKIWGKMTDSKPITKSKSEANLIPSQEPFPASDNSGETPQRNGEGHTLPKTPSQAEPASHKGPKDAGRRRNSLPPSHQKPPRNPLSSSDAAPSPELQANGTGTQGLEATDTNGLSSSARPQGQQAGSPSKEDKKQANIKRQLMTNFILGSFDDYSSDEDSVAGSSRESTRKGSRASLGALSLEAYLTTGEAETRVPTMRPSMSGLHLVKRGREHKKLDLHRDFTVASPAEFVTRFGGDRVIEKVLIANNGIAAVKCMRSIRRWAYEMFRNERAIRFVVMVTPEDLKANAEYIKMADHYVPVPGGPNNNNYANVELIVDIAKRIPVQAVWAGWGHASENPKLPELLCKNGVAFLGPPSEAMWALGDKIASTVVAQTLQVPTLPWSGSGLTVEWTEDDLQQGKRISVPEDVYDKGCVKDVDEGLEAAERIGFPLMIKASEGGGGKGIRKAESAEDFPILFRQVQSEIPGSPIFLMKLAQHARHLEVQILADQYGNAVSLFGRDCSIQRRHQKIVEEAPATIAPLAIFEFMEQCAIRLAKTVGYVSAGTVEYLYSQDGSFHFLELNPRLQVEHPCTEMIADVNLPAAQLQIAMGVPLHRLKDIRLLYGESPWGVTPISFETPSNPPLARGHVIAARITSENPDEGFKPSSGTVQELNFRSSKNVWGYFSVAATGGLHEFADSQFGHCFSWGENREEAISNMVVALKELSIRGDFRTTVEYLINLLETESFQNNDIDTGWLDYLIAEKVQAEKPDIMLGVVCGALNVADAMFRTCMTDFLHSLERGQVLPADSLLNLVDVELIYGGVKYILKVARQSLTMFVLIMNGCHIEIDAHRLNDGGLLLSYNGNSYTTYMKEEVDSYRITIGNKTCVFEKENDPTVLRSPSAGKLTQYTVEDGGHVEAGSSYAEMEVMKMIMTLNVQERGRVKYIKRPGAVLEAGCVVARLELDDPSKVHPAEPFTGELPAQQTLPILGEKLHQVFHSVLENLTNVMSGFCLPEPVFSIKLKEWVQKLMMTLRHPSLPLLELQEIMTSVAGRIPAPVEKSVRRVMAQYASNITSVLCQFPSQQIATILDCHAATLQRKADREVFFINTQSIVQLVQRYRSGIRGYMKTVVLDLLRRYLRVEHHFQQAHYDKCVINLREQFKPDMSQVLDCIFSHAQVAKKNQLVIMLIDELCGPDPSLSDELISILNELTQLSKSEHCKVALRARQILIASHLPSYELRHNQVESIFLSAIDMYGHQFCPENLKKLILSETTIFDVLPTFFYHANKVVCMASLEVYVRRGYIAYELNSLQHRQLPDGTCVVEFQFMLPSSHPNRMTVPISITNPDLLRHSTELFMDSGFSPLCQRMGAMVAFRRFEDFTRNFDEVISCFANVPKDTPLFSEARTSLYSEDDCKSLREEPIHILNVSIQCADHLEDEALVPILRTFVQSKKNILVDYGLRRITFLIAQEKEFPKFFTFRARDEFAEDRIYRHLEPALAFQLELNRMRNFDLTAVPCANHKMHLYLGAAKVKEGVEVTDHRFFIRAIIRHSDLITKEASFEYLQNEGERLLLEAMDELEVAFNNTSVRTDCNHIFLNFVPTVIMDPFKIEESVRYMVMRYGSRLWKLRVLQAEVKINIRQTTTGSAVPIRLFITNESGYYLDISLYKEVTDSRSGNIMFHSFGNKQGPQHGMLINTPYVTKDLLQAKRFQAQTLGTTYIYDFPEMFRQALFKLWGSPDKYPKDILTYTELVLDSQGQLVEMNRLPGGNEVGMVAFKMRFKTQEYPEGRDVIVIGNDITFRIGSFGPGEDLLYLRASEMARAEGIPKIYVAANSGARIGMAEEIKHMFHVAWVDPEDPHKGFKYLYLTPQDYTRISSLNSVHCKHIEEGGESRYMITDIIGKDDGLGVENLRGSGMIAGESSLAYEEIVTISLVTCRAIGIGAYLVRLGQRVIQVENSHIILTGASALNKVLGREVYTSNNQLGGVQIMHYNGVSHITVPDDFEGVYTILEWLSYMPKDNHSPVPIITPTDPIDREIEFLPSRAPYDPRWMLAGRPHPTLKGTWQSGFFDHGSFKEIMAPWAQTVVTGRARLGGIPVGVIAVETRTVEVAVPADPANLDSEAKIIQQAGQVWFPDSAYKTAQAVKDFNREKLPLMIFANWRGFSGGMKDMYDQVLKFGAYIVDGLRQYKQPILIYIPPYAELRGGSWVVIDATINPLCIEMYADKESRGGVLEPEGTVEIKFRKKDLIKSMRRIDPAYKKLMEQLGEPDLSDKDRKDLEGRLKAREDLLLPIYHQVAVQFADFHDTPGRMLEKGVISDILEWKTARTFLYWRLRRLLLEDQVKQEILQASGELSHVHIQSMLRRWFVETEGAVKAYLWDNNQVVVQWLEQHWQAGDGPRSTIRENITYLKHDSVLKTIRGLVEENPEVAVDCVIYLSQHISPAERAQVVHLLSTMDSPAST

Regarding `Cc1cc(C(=O)N2CCC3(CC2)CC(=O)c2nn(C4CCC4)c(C)c2O3)cc2cn[nH]c12` [1.128], the IC50 was 8 nM.

`CN1C(=O)CCc2ccc(C(=O)N3CCC4(CC3)CC(=O)c3nn(C(C)(C)C)cc3O4)cc21` [12.003]: the IC50 worked out at 52 nM.

Regarding `Cc1cc(C(=O)N2CCC3(CC2)CC(=O)c2nn(C(C)(C)C)cc2O3)cc2cnsc12` [7.007], the IC50 is 5 nM.

With `CCc1n[nH]c2c(OC)cc(C(=O)N3CCC4(CC3)CC(=O)c3nn(C(C)C)cc3O4)cc12` [1.044], the IC50 stood at 5 nM.

For `CCn1nc2c(c1C)OC1(CCN(C(=O)c3cc(C)c4sncc4c3)CC1)CC2=O` [7.008], the IC50 came out at 93 nM.

On to `CCc1n[nH]c2ccc(C(=O)N3CCC4(CC3)CC(=O)c3nn(C)cc3O4)cc12` [1.095], for which the IC50 worked out at 397 nM.

As for `CCc1n[nH]c2c(OC)cc(C(=O)N3CCC4(CC3)CC(=O)c3nn(C5CCC5)cc3O4)cc12` [1.050], the IC50 turned out to be 5 nM.

For `Cn1cc2c(n1)C(=O)CC1(CCN(C(=O)c3ccc4[nH]ncc4c3)CC1)O2` [1.071], the IC50 was 773 nM.

In the case of `Cn1c(O)nc2cc(C(=O)N3CCC4(CC3)CC(=O)c3nn(C(C)(C)C)cc3O4)ccc21` [8.010], the IC50 came out at 18 nM.

As for `CCOc1cc(C(=O)N2CCC3(CC2)CC(=O)c2nn(C(C)C)cc2O3)cc2c(CC)n[nH]c12` [1.121], the IC50 was 6 nM.

As to `CC(C)n1cc2c(n1)C(=O)CC1(CCN(C(=O)c3cc(F)c4nc[nH]c4c3)CC1)O2` [3.021], the IC50 amounted to 39 nM.

On to `CCn1nc2c(c1C)OC1(CCN(C(=O)c3ccc4nn(C)cc4c3)CC1)CC2=O` [25.004], for which the IC50 amounted to 122 nM.

With `CC(C)(C)n1cc2c(n1)C(=O)CC1(CCN(C(=O)c3ccc4oncc4c3)CC1)O2` [22.002], the IC50 amounted to 518 nM.

For `Cc1cc(C(=O)N2CCC3(CC2)CC(=O)c2nn(C(C)C)cc2O3)cc2c(Cl)n[nH]c12` [1.104], the IC50 is 4 nM.

`Cc1n[nH]c2ccc(C(=O)N3CCC4(CC3)CC(=O)c3nn(C5CCCC5)cc3O4)cc12` [1.088]: the IC50 came out at 16 nM.

`CCC(C)n1cc2c(n1)C(=O)CC1(CCN(C(=O)c3cc(C)c4[nH]nc(C)c4c3)CC1)O2` (stereo not drawn) [1.140]: the IC50 was found to be 2 nM.

`CCn1nc2c(c1C)OC1(CCN(C(=O)c3cc(F)c4nc(C)[nH]c4c3)CC1)CC2=O` [3.018]: the IC50 was found to be 105 nM.

Turning to `CCn1cc2c(n1)C(=O)CC1(CCN(C(=O)c3ccc4c(C)n[nH]c4c3)CC1)O2` [2.024], the IC50 is 60 nM.

As for `Cc1n[nH]c2c(Cl)cc(C(=O)N3CCC4(CC3)CC(=O)c3nn(C(C)C)cc3O4)cc12` [1.102], the IC50 was found to be 5 nM.

For `CCc1n[nH]c2ccc(C(=O)N3CCC4(CC3)CC(=O)c3nn(CC)cc3O4)cc12` [1.093], the half-inhibitory concentration (IC50) worked out at 18 nM.

As for `Cc1n[nH]c2ccc(C(=O)N3CCC4(CC3)CC(=O)c3nn(C)cc3O4)cc12` [1.085], the IC50 was 403 nM.

Take `CCOc1cc(C(=O)N2CCC3(CC2)CC(=O)c2nn(C(C)(C)C)cc2O3)cc2c(CC)n[nH]c12` [1.117]: the IC50 stood at 4 nM.

Regarding `CCn1nc2c(c1C)OC1(CCN(C(=O)c3ccc4ncccc4c3)CC1)CC2=O` [15.003], the IC50 is 179 nM.

Consider `COc1c(C(=O)N2CCC3(CC2)CC(=O)c2nn(C(C)C)cc2O3)ccc2cn[nH]c12` [2.022], for which the IC50 is 47 nM.

On to `Cc1ccc2cc(C(=O)N3CCC4(CC3)CC(=O)c3nn(C(C)(C)C)cc3O4)ccc2n1` [15.001], for which the IC50 came to 26 nM.

As to `CC(C)n1cc2c(n1)C(=O)CC1(CCN(C(=O)c3ccc4oncc4c3)CC1)O2` [22.001], the IC50 was above 1000 nM.

Regarding `Cc1n[nH]c2c(C)cc(C(=O)N3CCC4(CC3)CC(=O)c3nn(C5CCCCC5)cc3O4)cc12` [1.008], the IC50 amounted to 21 nM.

With `Cc1c2c(nn1C(C)C)C(=O)CC1(CCN(C(=O)c3ccc4[nH]ncc4c3)CC1)O2` [1.073], the IC50 worked out at 35 nM.

In the case of `CCn1nc2c(c1C)OC1(CCN(C(=O)c3ccc4nc(C)[nH]c4c3)CC1)CC2=O` [3.013], the IC50 was 211 nM.

Consider `CCn1nc2c(c1C)OC1(CCN(C(=O)c3ccc4nc[nH]c4c3)CC1)CC2=O` [3.026], for which the IC50 came to 168 nM.
